From PMC4447944 (The Journal of Biological Chemistry, 2015)

Columns and labels:
hADRα2A = molecular target: T1, hADRα2A (Homo sapiens, UniProt P08913); assay: cAMP Potentiation (Eurofins-CEREP); settings: @ 10 μM
T1 sequence (P08913 1-465): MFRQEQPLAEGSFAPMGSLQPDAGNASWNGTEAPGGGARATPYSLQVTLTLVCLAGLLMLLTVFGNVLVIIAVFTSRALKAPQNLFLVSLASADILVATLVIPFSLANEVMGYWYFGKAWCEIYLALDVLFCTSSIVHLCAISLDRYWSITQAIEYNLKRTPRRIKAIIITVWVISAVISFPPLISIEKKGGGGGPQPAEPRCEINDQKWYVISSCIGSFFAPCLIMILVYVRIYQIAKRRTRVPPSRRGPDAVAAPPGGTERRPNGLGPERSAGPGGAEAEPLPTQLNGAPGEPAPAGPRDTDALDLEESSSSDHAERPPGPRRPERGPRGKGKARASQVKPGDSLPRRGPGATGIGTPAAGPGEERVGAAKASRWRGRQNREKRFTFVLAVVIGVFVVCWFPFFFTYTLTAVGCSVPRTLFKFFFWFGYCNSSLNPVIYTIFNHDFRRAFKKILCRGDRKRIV

hOPRm1 = hOPRm1 (Homo sapiens, UniProt P35372); assay: β-arrestin Antagonist (Eurofins-CEREP); settings: read-out: % Effect, Inhibition
hMAP3K1 = molecular target: T2, hMAP3K1 (Homo sapiens, UniProt Q13233); assay: KINOMEscan; assay type: binding
T2 construct: purchased DiscoverX (KINOMEscan platform)

hSRPK2 = molecular target: T3, hSRPK2 (Homo sapiens, UniProt P78362); assay: KINOMEscan; assay type: binding
T3 construct: purchased DiscoverX (KINOMEscan platform)

hD1 = hD1 (Homo sapiens, UniProt P21728); assay: cAMP Agonist (Eurofins-CEREP); settings: @ 10 μM
hHPK1 = molecular target: T4, hHPK1 (Homo sapiens, UniProt Q92918); assay: KINOMEscan; assay type: binding
T4 construct: purchased DiscoverX (KINOMEscan panel)

hGRK1 = molecular target: T5, hGRK1 (Homo sapiens, UniProt Q15835); assay: KINOMEscan; assay type: binding
T5 construct: purchased DiscoverX

[1] = molecular target: T6, hTYK2(JH2Dom.-pseudokinase) (Homo sapiens, UniProt P29597); assay: KINOMEscan; assay type: binding
T6 construct: hTYK2(JH2Dom.-pseudokinase); purchased DiscoverX
T6 sequence (P29597 589-875 limits assumed): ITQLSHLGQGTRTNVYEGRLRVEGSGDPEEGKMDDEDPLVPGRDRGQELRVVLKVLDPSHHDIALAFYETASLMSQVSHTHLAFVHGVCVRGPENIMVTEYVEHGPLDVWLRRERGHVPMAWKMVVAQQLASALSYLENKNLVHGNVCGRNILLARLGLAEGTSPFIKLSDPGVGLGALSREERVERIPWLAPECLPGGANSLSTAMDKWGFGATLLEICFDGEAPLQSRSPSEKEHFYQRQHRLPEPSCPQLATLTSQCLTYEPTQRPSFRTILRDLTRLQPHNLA

hBTK = molecular target: T7, hBTK (Homo sapiens, UniProt Q06187); assay: KINOMEscan; assay type: binding
T7 construct: purchased DiscoverX

hSRPK3 = molecular target: T8, hSRPK3 (Homo sapiens, UniProt Q9UPE1); assay: KINOMEscan; assay type: binding
T8 construct: purchased DiscoverX (KINOMEscan platform)

[2] = test system: lysine methylation of histone H3 or H4; assay: Mass spectrometry proteomics of cell-derived histones, SMYD2-overexpressing KYSE-150 cells; assay type: cell-based, human; settings: 5 μM LLY-507 versus untreated cells
Experimental: Acid-extracted histone samples were chemically derivatized using propionic anhydride and digested with trypsin for 6 h at 37 °C. The digested peptides were treated with an additional round of propionylation and desalted using a C18 extracted mini disk (Empore 3M). Approximately 1 μg of each sample was loaded via an autosampler (Eksigent NanoLC.Ultra 2D Plus) onto a homemade precolumn (3-μm particle size, 120-Å pore size) at a flow rate of 2 μl/min. Peptides were chromatographically resolved via a 75-μm reversed phase analytical column packed with C18-AQ resin (1.9-μm particle size, 120-Å pore size) using a 77-min 2–98% solvent B gradient (solvent A, 0.1% formic acid; solvent B, 100% acetonitrile) at a flow rate of 250 nl/min. The electrosprayed peptides were detected by an Orbitrap Elite^TM mass spectrometer (Thermo Fisher Scientific) with a resolution of 120,000 for full MS spectrum followed by MS/MS spectra obtained in the ion trap. The relative abundance of each modification, expressed as a percentage on a histone peptide sequence, was quantified by analyzing its MS and MS/MS spectra via Epiquant, an in-house software.

hERN1 = molecular target: T9, hERN1 (Homo sapiens, UniProt O75460); assay: KINOMEscan; assay type: binding
T9 construct: purchased DiscoverX

hD2L = hD2L (Homo sapiens, UniProt P14416); assay: β-arrestin Antagonist (Eurofins-CEREP); settings: read-out: % Effect, Inhibition
hABL1(Q252H) = molecular target: T10, hABL1(Q252H) (Homo sapiens, UniProt P00519, Q252H); assay: KINOMEscan; assay type: binding
T10 construct: purchased DiscoverX (KINOMEscan platform)

hEPHB4 = molecular target: T11, hEPHB4 (Homo sapiens, UniProt P54760); assay: KINOMEscan; assay type: binding
T11 construct: purchased DiscoverX
T11 sequence (P54760 16-987): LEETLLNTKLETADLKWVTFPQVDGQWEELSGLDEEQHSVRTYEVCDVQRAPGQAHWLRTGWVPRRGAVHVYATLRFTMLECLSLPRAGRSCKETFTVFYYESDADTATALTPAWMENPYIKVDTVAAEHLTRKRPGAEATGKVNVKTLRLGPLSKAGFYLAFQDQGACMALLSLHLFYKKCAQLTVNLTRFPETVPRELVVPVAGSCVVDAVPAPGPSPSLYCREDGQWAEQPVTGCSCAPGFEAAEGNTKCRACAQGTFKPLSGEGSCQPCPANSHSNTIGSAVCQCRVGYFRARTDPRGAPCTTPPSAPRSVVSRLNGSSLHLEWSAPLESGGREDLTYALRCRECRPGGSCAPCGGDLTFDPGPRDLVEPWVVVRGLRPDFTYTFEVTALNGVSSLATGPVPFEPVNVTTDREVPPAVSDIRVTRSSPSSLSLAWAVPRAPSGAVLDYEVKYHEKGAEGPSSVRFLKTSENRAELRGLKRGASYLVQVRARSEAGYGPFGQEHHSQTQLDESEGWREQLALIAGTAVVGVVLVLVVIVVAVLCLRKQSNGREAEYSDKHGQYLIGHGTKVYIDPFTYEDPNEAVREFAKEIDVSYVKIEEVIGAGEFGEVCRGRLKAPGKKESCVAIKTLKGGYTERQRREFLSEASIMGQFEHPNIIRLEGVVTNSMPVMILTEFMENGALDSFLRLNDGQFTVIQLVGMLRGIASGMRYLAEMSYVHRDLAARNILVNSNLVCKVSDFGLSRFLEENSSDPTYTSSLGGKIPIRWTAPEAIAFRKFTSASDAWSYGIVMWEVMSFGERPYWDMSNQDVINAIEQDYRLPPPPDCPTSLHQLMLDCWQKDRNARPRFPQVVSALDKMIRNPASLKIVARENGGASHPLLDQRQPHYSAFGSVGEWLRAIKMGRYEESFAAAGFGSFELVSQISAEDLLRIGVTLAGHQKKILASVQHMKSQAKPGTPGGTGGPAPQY

hBIKE = molecular target: T12, hBIKE (Homo sapiens, UniProt Q9NSY1); assay: KINOMEscan; assay type: binding
T12 construct: purchased DiscoverX
T12 sequence (Q9NSY1 whole entry): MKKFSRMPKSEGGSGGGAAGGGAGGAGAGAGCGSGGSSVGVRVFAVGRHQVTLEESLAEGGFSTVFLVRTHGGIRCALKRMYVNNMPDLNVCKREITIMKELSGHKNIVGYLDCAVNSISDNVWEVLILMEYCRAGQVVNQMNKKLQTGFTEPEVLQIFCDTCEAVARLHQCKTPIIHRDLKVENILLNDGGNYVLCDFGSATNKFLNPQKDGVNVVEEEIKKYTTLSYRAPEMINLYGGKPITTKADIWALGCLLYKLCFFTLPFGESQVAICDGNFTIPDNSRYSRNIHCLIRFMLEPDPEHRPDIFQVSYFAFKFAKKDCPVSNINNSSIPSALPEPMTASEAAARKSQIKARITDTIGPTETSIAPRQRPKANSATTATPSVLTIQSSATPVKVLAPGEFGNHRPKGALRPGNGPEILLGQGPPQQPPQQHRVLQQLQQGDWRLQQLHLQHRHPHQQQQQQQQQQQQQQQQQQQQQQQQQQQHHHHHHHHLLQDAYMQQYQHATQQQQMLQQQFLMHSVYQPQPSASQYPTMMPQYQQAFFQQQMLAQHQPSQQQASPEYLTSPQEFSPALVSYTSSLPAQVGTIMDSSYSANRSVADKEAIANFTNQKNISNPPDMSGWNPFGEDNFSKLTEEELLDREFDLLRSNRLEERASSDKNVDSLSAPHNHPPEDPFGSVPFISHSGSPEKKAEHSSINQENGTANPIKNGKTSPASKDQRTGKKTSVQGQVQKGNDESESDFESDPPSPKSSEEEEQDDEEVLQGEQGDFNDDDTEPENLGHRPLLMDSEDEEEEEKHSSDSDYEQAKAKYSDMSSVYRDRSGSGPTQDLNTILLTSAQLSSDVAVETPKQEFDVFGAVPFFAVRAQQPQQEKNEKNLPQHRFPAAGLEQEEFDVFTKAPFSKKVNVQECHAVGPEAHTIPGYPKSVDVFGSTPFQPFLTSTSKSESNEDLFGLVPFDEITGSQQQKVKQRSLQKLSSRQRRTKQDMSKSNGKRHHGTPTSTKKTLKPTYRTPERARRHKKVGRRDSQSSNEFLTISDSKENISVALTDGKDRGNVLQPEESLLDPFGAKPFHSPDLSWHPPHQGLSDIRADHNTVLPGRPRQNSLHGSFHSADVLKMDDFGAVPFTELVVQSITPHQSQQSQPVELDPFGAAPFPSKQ

hADCK3 = molecular target: T13, hADCK3 (Homo sapiens, UniProt Q8NI60); assay: KINOMEscan; assay type: binding
T13 construct: purchased DiscoverX

h5HT2B = h5HT2B (Homo sapiens, UniProt P41595); assay: Calcium Mobilization Antagonist (Eurofins-CEREP); settings: read-out: % Effect, Inhibition
Chain of h5HT2B (P41595 whole entry): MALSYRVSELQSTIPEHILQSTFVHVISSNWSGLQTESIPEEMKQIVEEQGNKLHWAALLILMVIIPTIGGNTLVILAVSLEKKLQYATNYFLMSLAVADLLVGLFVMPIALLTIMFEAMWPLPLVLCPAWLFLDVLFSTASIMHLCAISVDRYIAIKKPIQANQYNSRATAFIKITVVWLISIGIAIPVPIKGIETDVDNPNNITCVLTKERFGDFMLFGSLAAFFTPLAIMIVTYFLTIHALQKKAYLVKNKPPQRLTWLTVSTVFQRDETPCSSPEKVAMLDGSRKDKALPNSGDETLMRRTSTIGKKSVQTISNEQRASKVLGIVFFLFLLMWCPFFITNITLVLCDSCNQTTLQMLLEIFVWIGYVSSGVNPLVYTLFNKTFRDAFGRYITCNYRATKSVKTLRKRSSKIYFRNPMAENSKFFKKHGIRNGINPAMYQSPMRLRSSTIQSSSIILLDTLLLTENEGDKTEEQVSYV

hERK5 = molecular target: T14, hERK5 (Homo sapiens, UniProt Q13164); assay: KINOMEscan; assay type: binding
T14 construct: purchased DiscoverX

hABL1(pT315I) = molecular target: T15, hABL1(pT315I) (Homo sapiens, UniProt P00519, T315I); assay: KINOMEscan; assay type: binding
T15 construct: purchased DiscoverX (KINOMEscan platform)

hULK2 = molecular target: T16, hULK2 (Homo sapiens, UniProt Q8IYT8); assay: KINOMEscan; assay type: binding
T16 construct: purchased DiscoverX

hEGFR = molecular target: T17, hEGFR (Homo sapiens, UniProt P00533); assay: KINOMEscan; assay type: binding
T17 construct: purchased DiscoverX

hMAP3K2 = molecular target: T18, hMAP3K2 (Homo sapiens, UniProt Q9Y2U5); assay: KINOMEscan; assay type: binding
T18 construct: purchased DiscoverX (KINOMEscan platform)

hFGFR2 = molecular target: T19, hFGFR2 (Homo sapiens, UniProt P21802); assay: KINOMEscan; assay type: binding
T19 construct: purchased DiscoverX
T19 sequence (P21802 22-821): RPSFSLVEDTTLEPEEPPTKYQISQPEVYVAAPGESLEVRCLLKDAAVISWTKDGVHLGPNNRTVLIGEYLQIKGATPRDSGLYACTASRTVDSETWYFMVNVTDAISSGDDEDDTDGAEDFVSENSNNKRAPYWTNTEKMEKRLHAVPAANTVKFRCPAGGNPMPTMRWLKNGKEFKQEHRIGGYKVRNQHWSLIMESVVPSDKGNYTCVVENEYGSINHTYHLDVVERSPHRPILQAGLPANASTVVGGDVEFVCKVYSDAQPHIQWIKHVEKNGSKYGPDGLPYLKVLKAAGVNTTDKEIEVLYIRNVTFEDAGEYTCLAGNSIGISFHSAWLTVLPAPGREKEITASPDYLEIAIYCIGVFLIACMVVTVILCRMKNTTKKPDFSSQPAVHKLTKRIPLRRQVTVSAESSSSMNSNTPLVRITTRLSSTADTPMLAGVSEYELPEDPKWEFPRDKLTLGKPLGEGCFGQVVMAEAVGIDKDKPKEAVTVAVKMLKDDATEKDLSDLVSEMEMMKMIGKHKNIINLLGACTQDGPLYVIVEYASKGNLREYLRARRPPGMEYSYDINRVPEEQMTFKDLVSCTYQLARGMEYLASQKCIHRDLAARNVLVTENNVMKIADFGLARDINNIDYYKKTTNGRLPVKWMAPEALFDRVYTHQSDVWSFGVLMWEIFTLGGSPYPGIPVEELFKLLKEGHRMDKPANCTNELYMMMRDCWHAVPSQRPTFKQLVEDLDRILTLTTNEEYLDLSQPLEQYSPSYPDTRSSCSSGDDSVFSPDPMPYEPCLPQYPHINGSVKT

hCSNK1E = molecular target: T20, hCSNK1E (Homo sapiens, UniProt P49674); assay: KINOMEscan; assay type: binding
T20 construct: purchased DiscoverX (KINOMEscan platform)

hCSNK1D = molecular target: T21, hCSNK1D (Homo sapiens, UniProt P48730); assay: KINOMEscan; assay type: binding
T21 construct: purchased DiscoverX (KINOMEscan platform)
T21 sequence (P48730 whole entry): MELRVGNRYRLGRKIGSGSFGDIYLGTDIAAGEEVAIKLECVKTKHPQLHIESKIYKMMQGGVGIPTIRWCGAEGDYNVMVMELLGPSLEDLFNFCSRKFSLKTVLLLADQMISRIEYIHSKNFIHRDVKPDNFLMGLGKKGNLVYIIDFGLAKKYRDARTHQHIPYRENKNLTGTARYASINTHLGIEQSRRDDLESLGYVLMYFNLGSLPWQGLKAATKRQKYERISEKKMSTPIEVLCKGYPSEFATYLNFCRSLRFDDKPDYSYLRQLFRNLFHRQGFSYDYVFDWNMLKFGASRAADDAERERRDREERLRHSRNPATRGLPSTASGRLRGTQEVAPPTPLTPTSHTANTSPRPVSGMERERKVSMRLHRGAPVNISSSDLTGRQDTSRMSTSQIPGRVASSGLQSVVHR

hCSNK1G3 = molecular target: T22, hCSNK1G3 (Homo sapiens, UniProt Q9Y6M4); assay: KINOMEscan; assay type: binding
T22 construct: purchased DiscoverX (KINOMEscan platform)

hCHEK2 = molecular target: T23, hCHEK2 (Homo sapiens, UniProt O96017); assay: KINOMEscan; assay type: binding
T23 construct: purchased DiscoverX
T23 sequence (O96017 whole entry): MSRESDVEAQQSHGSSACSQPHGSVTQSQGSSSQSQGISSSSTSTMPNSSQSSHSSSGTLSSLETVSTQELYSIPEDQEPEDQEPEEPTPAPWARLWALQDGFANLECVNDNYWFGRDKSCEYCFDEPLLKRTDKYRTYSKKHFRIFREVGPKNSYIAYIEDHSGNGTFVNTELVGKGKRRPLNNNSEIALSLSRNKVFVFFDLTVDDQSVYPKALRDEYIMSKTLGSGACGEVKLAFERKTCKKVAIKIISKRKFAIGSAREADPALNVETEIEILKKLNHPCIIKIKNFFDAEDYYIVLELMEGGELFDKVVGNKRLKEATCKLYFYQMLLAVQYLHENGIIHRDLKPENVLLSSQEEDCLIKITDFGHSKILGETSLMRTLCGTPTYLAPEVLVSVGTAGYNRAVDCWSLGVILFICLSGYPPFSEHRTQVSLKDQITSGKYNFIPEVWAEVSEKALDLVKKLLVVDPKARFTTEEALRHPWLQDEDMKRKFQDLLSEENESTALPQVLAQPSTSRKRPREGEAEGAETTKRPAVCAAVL

hTAOK3 = molecular target: T24, hTAOK3 (Homo sapiens, UniProt Q9H2K8); assay: KINOMEscan; assay type: binding
T24 construct: purchased DiscoverX

SMILES: Cc1cn(CCN2CCN(c3ccccc3-c3cc(C#N)cc(C(=O)NCCCN4CCCC4)c3)CC2)c2ccccc12 [LLY-507, 3-cyano-5-{2-[4-[2-(3-methylindol-1-yl)ethyl]piperazin-1-yl]-phenyl}-N-[(3-pyrrolidin-1-yl)propyl]benzamide]
- % Effect, Potentiation (hADRα2A): -20.5%
- inhibition at 1 µM (hOPRm1): -3.9%
- IC50 (hMAP3K1): > 20 µM
- IC50 (hSRPK2): > 20 µM
- % Effect, Stimulation (hD1): -6.8%
- IC50 (hHPK1): > 20 µM
- IC50 (hGRK1): > 20 µM
- IC50 [1]: > 20 µM
- IC50 (hBTK): > 20 µM
- IC50 (hSRPK3): > 20 µM
- change in lysine methylation of histone H3 or H4 [2]: did not show any significant change
- IC50 (hERN1): > 20 µM
- inhibition at 10 µM (hD2L): 29.8%
- IC50 (hABL1(Q252H)): > 20 µM
- IC50 (hEPHB4): > 20 µM
- IC50 (hBIKE): > 20 µM
- IC50 (hADCK3): > 20 µM
- inhibition at 10 µM (h5HT2B): 6.8%
- IC50 (hERK5): > 20 µM
- IC50 (hABL1(pT315I)): > 20 µM
- IC50 (hULK2): > 20 µM
- IC50 (hEGFR): > 20 µM
- IC50 (hMAP3K2): > 20 µM
- IC50 (hFGFR2): > 20 µM
- IC50 (hCSNK1E): > 20 µM
- IC50 (hCSNK1D): > 20 µM
- IC50 (hCSNK1G3): > 20 µM
- IC50 (hCHEK2): > 20 µM
- IC50 (hTAOK3): > 20 µM
